According to US11026922B2, “Compositions comprising melatonin and flavonoids for use in the treatment of tumours resistant to chemotherapy” (priority 2014, dated 2021):

What was measured:
[1] = system: MDA-MB-231 (breast adenocarcinoma); assay: Cell viability of chemoresistant MDA-MB-231 cells (Tables 1, 2, 4); format: cell-based, human; details: alone or in association with cyclophosphamide
Source text: The activity of the association of at least one flavonoid, preferably selected from the group comprising or, alternatively, consisting of oxerutin, diosmin, hesperidin and rutin in association with melatonin and with synthetic chemotherapeutic agents (cyclophosphamide/methotrexate) and/or arctigenin, arctiin, berberine, berbamine, sanguinarine and chelerythrine (indicated with the term “Extracts” in the Tables) was studied in resistant cell lines of adenocarcinomas and carcinomas in comparison with chemosensitive tumour cell lines and line cells.

[2] = system: chemoresistant MDA-MB-231 human tumour cells (breast adenocarcinoma); assay: Viability of MDA-MB-231 cells, xCELLigence assay (Table 5); format: cell-based; details: conclusion from Tables 5 and 6 (MDA-MB-231 and MCF-7)

Question: For O=c1c(O)c(-c2ccc(O)c(O)c2)oc2cc(O)cc(O)c12 [Quercetin, quercetin], which “synergistic effects in association with cyclophosphamide” value [1] is on record?
Answer: Its value is “absence of synergistic effects”.

Question: How did the “effect on the anti-tumour activity of flavonoids” value [2] turn out when COc1ccc2[nH]cc(CCNC(C)=O)c2c1 [Melatonin, melatonin] was run?
Answer: The value was “enhances the anti-tumour activity of flavonoids”.
